# According to patent US6407094B1, “Glutamate receptor antagonists” (Hoffmann-la Roche Inc., priority 1999, dated 2002):
row,SMILES,melting point
1,"CONC(=O)COc1cc2c(cc1C#Cc1ccccc1)NC(=O)CC(c1cccc(C#N)c1)=N2 [Example 41, 2-[4-(3-Cyano-phenyl)-2-oxo-8-phenylethynyl-2,3-dihydro-1H-benzo[b][1,4]diazepin-7-yloxy]-N-methoxy-acetamide]",> 250 °C
2,"COc1cc2c(cc1-c1ccc(F)cc1)NC(=O)CC(c1cccc(-n3ccnc3)c1)=N2 [Example 51, 8-(4-Fluoro-phenyl)-4-(3-imidazol-1-yl-phenyl)-7-methoxy-1,3-dihydro-benzo[b][1,4]diazepin-2-one]",221 °C (dec.)
3,"N#Cc1cc(C2=Nc3cc(O)c(-c4ccc(F)cc4)cc3NC(=O)C2)ccn1 [Example 74, 4-[7-(4-Fluoro-phenyl)-8-hydroxy-4-oxo-4,5-dihydro-3H-benzo[b][1,4]diazepin-2-yl]-pyridine-2-carbonitrile]",164 °C
4,"O=C1CC(c2cccc(-n3ccnc3)c2)=Nc2cc(N3CC[C@@H](O)C3)c(-c3ccc(F)cc3)cc2N1 [Example 63, 8-(4-Fluoro-phenyl)-7-((R)-3-hydroxy-pyrrolidin-1-yl)-4-(3-imidazol-1-yl-phenyl)-1,3-dihydro-benzo[b][1,4]diazepin-2-one]",155 to 158 °C
5,"COc1cc2c(cc1-c1ccc(F)cc1C)NC(=O)CC(c1cccc(-n3ccnc3)c1)=N2 [Example 60, 8-(4-Fluoro-2-methyl-phenyl)-4-(3-imidazol-1-yl-phenyl)-7-methoxy-1,3-dihydro-benzo[b][1,4]diazepin-2-one]",225 °C
6,"O=C1CC(c2cccc(-n3ccnc3)c2)=Nc2cc(N3CCC4(CC3)OCCO4)c(-c3ccccc3F)cc2N1 [Example 77, 7-(1,4-Dioxa-8-aza-spiro[4.5]dec-8-yl)-8-(2-fluoro-phenyl)-4-(3-imidazol-1-yl-phenyl)-1,3-dihydro-benzo[b][1,4]diazepin-2-one]",225 °C
7,"CCOCc1cc2c(cc1C#Cc1ccccc1)NC(=O)CC(c1cccc(C#N)c1)=N2 [Example 29, 3-(8-Ethoxymethyl-4-oxo-7-phenylethynyl-4,5-dihydro-3H-benzo [b][1,4]diazepin-2-yl)-benzonitrile]",229 °C
8,"O=C1CCN(c2cc3c(cc2C#Cc2ccccc2)NC(=O)CC(c2cccc(-n4ccnc4)c2)=N3)CC1 [Example 39, 4-(3-Imidazol-1-yl-phenyl)-7-(4-oxo-piperidin-1-yl)-8-phenylethynyl-1,3-dihydro-benzo[b][1,4]diazepin-2-one]",231 °C (dec.)
9,"O=C1CC(c2cccc(-n3ccnc3)c2)=Nc2cc(N3C[C@@H](O)[C@@H](O)C3)c(-c3ccc(F)cc3)cc2N1 [Example 50, 7-(cis-3,4-Dihydroxy-pyrrolidin-1-yl)-8-(4-fluoro-phenyl)-4-(3-imidazol-1-yl-phenyl)-1,3-dihydro-benzo[b][1,4]diazepin-2-one]",244 °C
10,"COc1cc2c(cc1-c1ccccc1F)NC(=O)CC(c1cccc(-n3cnnc3)c1)=N2 [Example 70, 8-(2-Fluoro-phenyl)-7-methoxy-4-(3-[1,2,4]triazol-4-yl-phenyl)-1,3-dihydro-benzo[b][1,4]diazepin-2-one]",188 °C (dec.)
11,"COC1CCN(c2cc3c(cc2C#Cc2ccccc2)NC(=O)CC(c2cccc(-n4ccnc4)c2)=N3)CC1 [Example 33, 4-(3-Imidazol-1-yl-phenyl)-7-(4-methoxy-piperidin-1-yl)-8-phenylethynyl-1,3-dihydro-benzo[b][1,4]diazepin-2-one]",222 °C
12,"N#CCOc1cc2c(cc1-c1ccc(F)cc1)NC(=O)CC(c1cccc(-n3ccnc3)c1)=N2 [Example 47, [8-(4-Fluoro-phenyl)-4-(3-imidazol-1-yl-phenyl)-2-oxo-2,3-dihydro-1H-benzo[b][1,4]diazepin-7-yloxy]-acetonitrile]",164 °C
13,"O=C1CC(c2cccc(-n3ccnn3)c2)=Nc2cc(O)c(C#Cc3ccc(F)cc3)cc2N1 [Example 92, 8-(4-Fluoro-phenylethynyl)-7-hydroxy-4-(3-[1,2,3]triazol-1-yl-phenyl)-1,3-dihydro-benzo[b][1,4]diazepin-2-one]",243 °C
14,"CN(C)Cc1cc2c(cc1-c1ccc(F)cc1)NC(=O)CC(c1cccc(-n3ccnc3)c1)=N2 [Example 48, 7-Dimethylaminomethyl-8-(4-fluoro-phenyl)-4-(3-imidazol-1-yl-phenyl)-1,3-dihydro-benzo[b][1,4]diazepin-2-one]",115 to 140 °C (dec.)

# Further lines, results first:
row,melting point,SMILES
1,180 to 195 °C,"O=C1CC(c2cccc(-n3ccnc3)c2)=Nc2cc(CO)c(-c3ccc(F)cc3)cc2N1 [Example 46, 8-(4-Fluoro-phenyl)-7-hydroxymethyl-4-(3-imidazol-1-yl-phenyl)-1,3-dihydro-benzo[b][1,4]diazepin-2-one]"
2,253 °C,"N#Cc1cccc(C2=Nc3cc(N4CCC5(CC4)OCCO5)c(-c4ccccc4F)cc3NC(=O)C2)c1 [Example 76, 3-[8-(1,4-Dioxa-8-aza-spiro[4.5]dec-8-yl)-7-(2-fluoro-phenyl)-4-oxo-4,5-dihydro-3H-benzo[b][1,4]diazepin-2-yl]-benzonitrile]"
3,202 °C (dec.),"N#Cc1cccc(C2=Nc3cc(SCC(=O)O)c(C#Cc4ccccc4)cc3NC(=O)C2)c1 [Example 13, [4-(3-Cyano-phenyl)-2-oxo-8-phenylethynyl-2,3-dihydro-1H-benzo[b][1,4]diazepin-7-ylsulfanyl]-acetic acid]"
4,196 °C,"Cc1cc2c(cc1-c1ccc(F)cc1)NC(=O)CC(c1cccc(-n3ccnc3)c1)=N2 [Example 53, 8-(4-Fluoro-phenyl)-4-(3-imidazol-1-yl-phenyl)-7-methyl-1,3-dihydro-benzo[b][1,4]diazepin-2-one]"
5,257 °C (dec.),"N#Cc1cccc(C2=Nc3cc(OCC(=O)O)c(C#Cc4ccccc4)cc3NC(=O)C2)c1 [Example 22, [4-(3-Cyano-phenyl)-2-oxo-8-phenylethynyl-2,3-dihydro-1H-benzo[b][1,4]diazepin-7-yloxy]-acetic acid]"
6,240 °C (dec.),"CC1(C)OC2CN(c3cc4c(cc3-c3ccc(F)cc3)NC(=O)CC(c3cccc(-n5ccnc5)c3)=N4)CC2O1 (stereo not drawn) [Example 49, 7-(2,2-Dimethyl-tetrahydro-[1,3]dioxolo [4,5-c]pyrrol-5-yl)-8-(4-fluoro-phenyl)-4-(3-imidazol-1-yl-phenyl)-1,3-dihydro-benzo[b][1,4]diazepin-2-one]"
7,> 250 °C,"N#Cc1cccc(C2=Nc3cc(O)c(-c4ccc(F)cc4)cc3NC(=O)C2)c1 [Example 65, 3-[7-(4-Fluoro-phenyl)-8-hydroxy-4-oxo-4,5-dihydro-3H-benzo[b][1,4]diazepin-2-yl]-benzonitrile]"
8,209 to 211 °C,"O=C1CC(c2cccc(-n3ccnc3)c2)=Nc2cc(Cl)c(-c3ccc(F)cc3)cc2N1 [Example 56, 7-Chloro-8-(4-fluoro-phenyl)-4-(3-imidazol-1-yl-phenyl)-1,3-dihydro-benzo[b][1,4]diazepin-2-one]"
9,> 250 °C,"O=C1CC(c2cccc(-n3ccnn3)c2)=Nc2cc(O)c(-c3ccc(F)cc3)cc2N1 [Example 86, 8-(4-Fluoro-phenyl)-7-hydroxy-4-(3-[1,2,3]triazol-1-yl-phenyl)-1,3-dihydro-benzo[b][1,4]diazepin-2-one]"
10,238 to 240 °C,"O=C1CC(c2cccc(-n3ccnc3)c2)=Nc2cc(N3CCC(O)CC3)c(-c3ccc(F)cc3)cc2N1 [Example 43, 8-(4-Fluoro-phenyl)-7-(4-hydroxy-piperidin-1-yl)-4-(3-imidazol-1-yl-phenyl)-1,3-dihydro-benzo[b][1,4]diazepin-2-one]"
11,222 to 224 °C (dec.),"CN1CCN(c2cc3c(cc2C#Cc2ccccc2)NC(=O)CC(c2cccc(C#N)c2)=N3)CC1 [Example 5, 3-[8-(4-Methyl-piperazin-1-yl)-4-oxo-7-phenylethynyl-4,5-dihydro-3H-benzo[b][1,4]diazepin-2-yl]-benzonitrile]"
12,230 °C,"O=C1CC(c2cccc(-n3ccnc3)c2)=Nc2cc(N3CCOC3=O)c(-c3ccc(F)cc3)cc2N1 [Example 59, 8-(4-Fluoro-phenyl)-4-(3-imidazol-1-yl-phenyl)-7-(2-oxo-oxazolidin-3-yl)-1,3-dihydro-benzo[b][1,4]diazepin-2-one]"
13,220 to 222 °C,"O=C1CC(c2cccc(-n3ccnc3)c2)=Nc2cc(OCCO)c(C#Cc3ccc(F)cc3)cc2N1 [Example 44, 8-(4-Fluoro-phenylethynyl)-7-(2-hydroxy-ethoxy)-4-(3-imidazol-1-yl-phenyl)-1,3-dihydro-benzo[b][1,4]diazepin-2-one]"
14,239 to 243 °C (dec.),"N#Cc1cccc(C2=Nc3cc(N4CCC5(CC4)OCCO5)c(C#Cc4ccccc4)cc3NC(=O)C2)c1 [Example 9, 3-[8-(1,4-Dioxa-8-aza-spiro[4.5]dec-8-yl)-4-oxo-7-phenylethynyl-4,5-dihydro-3H-benzo[b][1,4]diazepin-2-yl]-benzonitrile]"
15,> 250 °C,"CC(C)(C)NC(=O)COc1cc2c(cc1C#Cc1ccccc1)NC(=O)CC(c1cccc(C#N)c1)=N2 [Example 40, N-tert.-Butyl-2-[4-(3-cyano-phenyl)-2-oxo-8-phenylethynyl-2,3-dihydro-1H-benzo[b][1,4]diazepin-7-yloxy]-acetamide]"
16,225 °C,"O=C1CC(c2cccc(-n3ccnc3)c2)=Nc2cc(OCCO)c(-c3ccc(F)cc3)cc2N1 [Example 58, 8-(4-Fluoro-phenyl)-7-(2-hydroxy-ethoxy)-4-(3-imidazol-1-yl-phenyl)-1,3-dihydro-benzo[b][1,4]diazepin-2-one]"
17,214 °C,"N#CCOc1cc2c(cc1C#Cc1ccccc1)NC(=O)CC(c1cccc(-n3ccnc3)c1)=N2 [Example 35, [4-(3-Imidazol-1-yl-phenyl)-2-oxo-8-phenylethynyl-2,3-dihydro-1H-benzo[b][1,4]diazepin-7-yloxy]-acetonitrile]"
18,174 to 176 °C,"COCCOc1cc2c(cc1C#Cc1ccccc1)NC(=O)CC(c1cccc(C#N)c1)=N2 [Example 18, 3-[8-(2-Methoxy-ethoxy)-4-oxo-7-phenylethynyl-4,5-dihydro-3H-benzo[b][1,4]diazepin-2-yl]-benzonitrile]"
19,196 to 197 °C,"COCCOc1cc2c(cc1-c1ccc(F)cc1)NC(=O)CC(c1cccc(-n3ccnc3)c1)=N2 [Example 57, 8-(4-Fluoro-phenyl)-4-(3-imidazol-1-yl-phenyl)-7-(2-methoxy-ethoxy)-1,3-dihydro-benzo[b][1,4]diazepin-2-one]"
